Where two headings read alike, the source gives them in different places.
Columns and labels:
[1] = test system: climbing behaviour in mice, induced by apomorphine; assay: Apomorphine climbing test (ACT) in mice; assay type: in vivo; details: test compound s.c., 0.75 mg/kg apomorphine HCl s.c. after 30 min, climbing scored at 10 and 20 min
Source text: The ability of dopamine receptor antagonists to inhibit the behavioural effects in rodents caused by dopamine agonists such as apomorphine is a well established criterion for predicting the antipsychotic efficacy of these drugs in man (see e.g. W. C. Bowman and M. J. Rand, Textbook of Pharmacology, 2nd ed., 1980, 15, 6). A particularly relevant test in this respect is the apomorphine climbing test (ACT) which measures the ability of a dopamine antagonist to inhibit the climbing behaviour in mice, induced by the subcutaneous or oral administration of apomorphine. Activity in this test, following systemic and oral administration, has been widely used as a predictor of antipsychotic activity i.e. anti-schizophrenic activity (see e.g. J. T Strupczewski et.al., J. Med. Chem., 1995, 38, 1119). Mice treated with apomorphine HCl tend to adopt a vertical position along the wall of a wire mesh cylinder, standing or climbing. This climbing behaviour is considered to be elicited by apomorphine-mediated stimulation of dopamine receptors. […] Test compounds which modulate this climbing behaviour may have antipsychotic activity. The various treatments are randomly distributed over the mice. Each experiment consists of 1+n treatment groups: 1 being a control group of 12 mice receiving apomorphine and vehicle subcutaneously or being a control group of 12 mice receiving apomorphine subcutaneously and vehicle orally; n being (usually 4) compound groups of 12 mice receiving apomorphine and test compound subcutaneously or being compound groups of 12 mice receiving apomorphine subcutaneously and test compound orally.
Experiments are performed in 3 runs of 20 mice each. […]
At 10 min after the treatment with apomorphine the climbing behaviour of each mouse is observed and expressed as a score, according to the following grade: […]
At 20 min after the treatment with apomorphine the climbing behaviour is observed and scored again. For each treatment group the mean score per mouse is determined. […] The final result per group is expressed as the percentage over the control group. […]

catalepsy in rats [2] = details: rat, in vivo
Protocol: (§1) Male Wistar rats (100-125 g, Olac UK) were used for catalepsy experiments. Catalepsy was assessed as described previously (Broekkamp et al, Naunyn-Schmiedeberg's Arch. Pharmacol. 338, 191 1988). Briefly, rats were tested in 6 different observation trials in which the animals were placed in abnormal postures and scored positively with one point for maintaining the imposed posture for 10 s. The imposed postures were: vertical clinging to a grid, upright standing with a high support for the front paws, extension of hindlegs, placement on back, placement of spatula in the mouth and rotation in a wire mesh cylinder.
(§2) Theoretically a maximum score of 6 can be reached. Catalepsy was assessed at 60 and 120 minutes after drug administration. The data were evaluated by 2 way ANOVAR followed by a Newman Kools post hoc test and ED50 values calculated (Table II).

catalepsy in rats [3] = assay: Catalepsy in rats; details: male Wistar rats; catalepsy assessed at 60 and 120 minutes after drug administration
Protocol: as §1, §2

Compound | melting point [°C] | ACT(ED50) [1] [mg/kg] | also measured
CCc1csc(C(=C2CCN(CCCC(=O)N3CCCC3)CC2)c2ccc(F)cc2)c1.Cl.Cl | 167.4 | – | –
Cc1csc(C(=C2CCN(CCCNC(=O)c3ccccc3)CC2)c2ccc(F)cc2)c1.Cl | 95 to 97 | – | –
Cc1ccc(C(=O)NCCN2CCC(=C(c3ccc(F)cc3)c3cc(C)cs3)CC2)cc1.O=C(O)C(=O)O | 189 to 191 | – | –
Cc1ccc(C(=O)N(C)CCN2CCC(=C(c3ccc(F)cc3)c3cc(C)cs3)CC2)cc1 | 114 to 116 | – | –
Cc1csc(C(=C2CCN(CCNC(=O)C3CC3)CC2)c2ccc(F)cc2)c1.O=C(O)C(=O)O | 98 to 101 | – | –
Cc1csc(C(=C2CCN(CCCC(=O)N3CCCCC3)CC2)c2ccc(F)cc2)c1.O=C(O)C(=O)O [Compound 2l, 1-[4-[4-[(4-fluorophenyl)(4-methylthien-2-yl)methylene]piperidin-1-yl]-1-oxobutyl]-piperidine (1:1) ethanedicarboxylate] | – | 0.3 | –
Cc1csc(C(=C2CCN(CCCC(=O)N3CCCC3)CC2)c2ccc(F)cc2)c1.Cl.Cl [Compound 2m, 1-[4-[4-[(4-fluorophenyl)(4-methylthien-2-yl)methylene]piperidin-1-yl]-1-oxobutyl]-pyrrolidine.dihydrochloride] | – | 0.14 | CATR (ED50) (catalepsy in rats [2]): >7 mg/kg
Cc1csc(C(=C2CCN(CCCC(=O)N3CCCCC3)CC2)c2cccc(F)c2)c1.Cl [Compound 2n, 1-[4-[4-[(3-fluorophenyl)(4-methylthien-2-yl)methylene]piperidin-1-yl]-1-oxobutyl]-piperidine.hydrochloride] | – | 0.34 | CATR (ED50) (catalepsy in rats [3]): >17 mg/kg
